Assay results as given in patent US20200009034A1, “TOPICAL SKIN LIGHTENING ADDITIVE AND COMPOSITION WITH AMINO ACIDS AND PPAR ACTIVATING FATTY ACIDS” (Conopco, Inc., d/b/a UNILEVER, priority 2017, published 2020).

Experiments:
[1] = pH less than 2 or pH above 8; cited from earlier work
Human Keratinocytes [2] = assay: Glutathione assay (total glutathione after menadione challenge); type: cell-based
Method: Human Keratinocytes (Promocell, Heidelberg, Germany) were maintained in EpiLife® medium containing 60 uM calcium chloride and 1% Human Keratinocyte Growth Supplement (both media components from ThermoFisher Scientific) in a humidified incubator with an atmosphere containing 5% CO2 at 37° C. The medium was refreshed every 2-3 days. Subsequently, cells were trypsinized at 90% confluency and seeded at a density of 1×10^4 per well into 96-well plates with white wall and clear bottom. One or two days after seeding, cell medium was replaced with Hank's Balanced Salt Solution (HBSS), and keratinocytes were pre-treated with GAP (or 0.12-0.240 mM sodium hydroxide vehicle control, pH 7.5) alone or in combination with additional test reagents described above or L-cystine esters alone for 1-2 hours. The concentration of all amino acids constituting the GAP mixture used in this assay are designated in the data tables, and fully described in the abbreviations list below.
After one or two hours of pre-treatment with GAP or additional test reagents, alone or in combination, keratinocytes were then challenged with 25 uM menadione (Sigma-Aldrich), a known inducer of oxidative stress. After 18-20 hours, cells were harvested and analyzed for total glutathione levels using a commercially available kit (GSH-GSSG GLo Assay, Promega), a luminescence-based system for the detection and quantification of total glutathione in cultured cells. In summary, after cell treatment, the media was removed and replaced with a cell lysis reagent for 5 minutes at 20-25° C.; note, all remaining steps were also conducted at 20-25° C. Next, a luciferase generation reagent was added to each well and incubated for 30 minutes. Following this step, a luciferin detection reagent was added to each well and plates were incubated for 15 minutes. Finally, plates were then read for luminescence in a FlexStation 3 plate reader (Molecular Devices). Total glutathione levels were calculated after interpolation of glutathione concentrations from a standard curve. Experimental conditions were typically conducted in at least triplicate determinations. Statistical significance was calculated using 1-way ANOVA. Percent protection was calculated by using the calculated glutathione levels from each experiment in the following equation: […]

Human Keratinocytes [3] = assay: Reactive Oxygen Species (ROS) assay; type: cell-based; settings: 18 hours; for activity at 20 µM / activity at 40 µM / activity at 80 µM / activity at 160 µM: Homo sapiens, Keratinocyte, read-out: ROS inhibition (% of vehicle control); for activity at 20 µM / ROS % Protection (improvement vs. vehicle control + menadione): 20 uM + menadione; for activity at 40 µM: 40 uM + menadione; for activity at 80 µM: 80 uM + menadione; for activity at 160 µM: 160 uM + menadione
Method: Human Keratinocytes (Promocell, Heidelberg, Germany) were maintained in EpiLife® keratinocyte medium containing 60 uM calcium chloride and 1% Human Keratinocyte Growth Supplement (HKGS) in a humidified incubator with an atmosphere containing 5% CO2 at 37° C. The medium was refreshed every other day. Subsequently, cells were trypsinized at 90% confluency and seeded at a density of 1-2×10^4 per well into 96-well plates with black wall and clear bottom. On the second day after seeding, cell medium was replaced with Hank's Balanced Salt Solution (HBSS) with or without menadione (10-25 uM), GAP, GAP vehicle (0.2 mM NaOH, pH 7.5), above-described additional test reagents, or combinations of GAP with additional test reagents or L-cystine esters alone, and incubated for additional 18 hours. For ROS detection, CellROX green (Life Tech, Thermo Fisher Scientific, Rockford, USA) reagent was added into each well to a final concentration of 15-25 uM and incubated for additional 2-4 hours at 37° C. in a humidified incubator. The ROS fluorescence was detected using a Tecan microplate reader (Excitation/Emission=490/525). Relative ROS production was calculated with normalization based on the vehicle control treatment which was set to 100%. Where indicated, percent protection was calculated as a comparison to menadione alone treatment, using the measured relative fluorescent units in the following equation: […]
ROS levels were evaluated together with cell viability because it is possible to get a false negative for ROS if treatment is so toxic, that at the time of assay, cells are dead (and there are no longer any detectable ROS). Decrease in ROS levels is meaningful if cells are still viable.

Human Keratinocytes [4] = assay: Cell viability assay (CCK-8); type: cell-based; settings: 18 hours; for viability at 20 µM / viability at 40 µM / viability at 80 µM / viability at 160 µM: Homo sapiens, Keratinocyte, read-out: Cell viability (% of vehicle control); for viability at 160 µM: 160 uM + menadione
Method: Human Keratinocytes (Promocell, Heidelberg, Germany) were maintained in EpiLife® keratinocyte medium containing 60 uM calcium chloride and 1% Human Keratinocyte Growth Supplement (HKGS). The medium was refreshed every other day. Subsequently, cells were trypsinized at 90% confluency and seeded at a density of 2×10^4 per well into 96-well transparent tissue culture plates. On the second day after seeding, cell medium was replaced with treatments as described above in ROS assay section. After 18 hours, […] (CCK-8) reagent (Dojindo, Kumamoto, Japan) was diluted 1:10 in HBSS and incubated with cells for 4 h at 37° C. in a humidified incubator. Optical absorption at 450 nm was measured using a Tecan Safire2 plate reader. Relative viability was calculated with normalization based on the vehicle control treatment, which was set to 100%.
Where indicated, percent protection was calculated as a comparison to menadione alone treatment, using the measured relative absorbance units in the following equation: […]

[5] = test system: Human primary melanocytes; assay: Melanin content assay (melanin synthesis inhibition); type: cell-based; settings: Melanocyte, 72 hours treatment
Method: Human primary melanocytes (Cascade Biologics, now ThermoFisher Scientific) were grown in melanocytes growth medium (MGM) with human melanocyte growth supplement (both media components from ThermoFisher Scientific). Melanocytes were seeded at 5×10^4 cells/well in 24 well-plates and incubated in a humidified incubator at 37° C. with 5% CO2 atmosphere. After 24 hours of incubation, cell cultures were treated with the GAP amino acids or 12- hydroxystearic acid, alone or in combination. The vehicle control consisted of cells treated with the vehicle GAP (0.002 mM NaOH), and/or additional test reagent vehicle, . After treatment, cells were again incubated for 72 hours in a humidified incubator at 37° C. with 5% CO2 atmosphere. At the end of the 72 hour incubation, the culture medium was replaced with 120 uL/well of melanin content assay reagent (10% DMSO in 1M sodium hydroxide) and incubated for 1 hour at 60° C. in a shaker incubator. The supernatant was then transferred to a 384 well plate. The absorbance was measured by spectrophotometric analysis at 405 nm with a micro plate reader (GEnios Pro, Tecan).
The spectrophotometric optical density at 405 nm for untreated cells (no active) was considered as 100% melanin content. Relative melanin content for treated samples was calculated with normalization based on the untreated (media/vehicle) control.

| SMILES | Glutathione Synthesis, % Protection (improvement vs. vehicle control + menadione) (Human Keratinocytes [2]; 80 uM + menadione) | activity at 20 µM (Human Keratinocytes [3]) | activity at 40 µM (Human Keratinocytes [3]) | activity at 80 µM (Human Keratinocytes [3]) | activity at 160 µM (Human Keratinocytes [3]) | viability at 20 µM (Human Keratinocytes [4]; 20 uM + menadione) | viability at 40 µM (Human Keratinocytes [4]; 40 uM + menadione) | viability at 80 µM (Human Keratinocytes [4]; 80 uM + menadione) | viability at 160 µM (Human Keratinocytes [4]) | Glutathione Synthesis, % Protection (improvement vs. vehicle control + menadione) (Human Keratinocytes [2]; 40 uM + menadione) | Glutathione Synthesis, Mean (μm glutathione) (Human Keratinocytes [2]; 40 uM + menadione) | ROS % Protection (improvement vs. vehicle control + menadione) (Human Keratinocytes [3]) | other results |
| --- | --- | --- | --- | --- | --- | --- | --- | --- | --- | --- | --- | --- | --- |
| N[C@@H](CSSC[C@H](N)C(=O)O)C(=O)O [cystine] | – | – | – | – | – | – | – | – | – | – | – | – | solubility in aqueous solutions [1]: more soluble |
| COC(=O)[C@@H](N)CSSC[C@H](N)C(=O)OC.Cl.Cl [CDME, L-Cystine dimethyl ester dihydrochloride] | 31^1,2% | 108% | 111% | 114% | 97.9% | 90.9% | 93.1% | 87% | 106% | – | – | – | – |
| CCOC(=O)[C@@H](N)CSSC[C@H](N)C(=O)OCC.Cl.Cl [DEC, Diethyl L-cystinate dihydrochloride] | – | 233% | 212% | 234% | 254% | 110% | 127% | 132% | 122% | 13^1,2% | 0.54^1,2 μm | 38.0^1,2% | – |
| CCCCCCC(O)CCCCCCCCCCC(=O)O (stereo not shown) [12-Hydroxystearic Acid, 12-hydroxystearic acid] | – | – | – | – | – | – | – | – | – | – | – | – | inhibition at 4 µM ([5]; 12-Hydroxystearic Acid 4 uM, alone or with GAP): 7%; inhibition at 8 µM ([5]; 12-Hydroxystearic Acid 8 uM, alone or with GAP): 10% |
| CCCCCCc1ccc(O)cc1O [HR, 4-hexylresorcinol, reference compound] | – | – | – | – | – | – | – | – | – | – | – | – | inhibition at 10 µM ([5]; 10 uM): 39% |
| CC(C)(C)OC(=O)[C@@H](N)CSSC[C@H](N)C(=O)OC(C)(C)C.Cl.Cl [DTBC, Ditert-butyl L-cystinate dihydrochloride] | 1^1% | 367% | 324% | 269% | 221% | 78.1% | 75.9% | 73.6% | 104% | 0^1% | 0.17^1 μm | 2.2% | Glutathione Synthesis, Mean (μm glutathione) (Human Keratinocytes [2]; 80 uM + menadione): 0.19^1 μm; Cell viability % protection (improvement vs. vehicle control + menadione) (Human Keratinocytes [4]; 20 uM + menadione): 6.0^1%; Cell viability % protection (improvement vs. vehicle control + menadione) (Human Keratinocytes [4]; 40 uM + menadione): 3.0^1%; Cell viability % protection (improvement vs. vehicle control + menadione) (Human Keratinocytes [4]; 80 uM + menadione): −0.1^1% |
